Data from PubChem BioAssay (NCI).
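Compound exposure: 48 hours, 5 concentrations, 96-well plates. TGI is the concentration that stops growth completely.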

Assays:
Assay in all cases: DTP human tumour cell line panel, 48 h
786-0 renal = test system: 786-0 renal
A498 renal = test system: A498 renal
A549 NSCLC = test system: A549 NSCLC
ACHN renal = test system: ACHN renal
BT-549 breast = test system: BT-549 breast
CAKI-1 renal = test system: CAKI-1 renal
CCRF-CEM leukemia = test system: CCRF-CEM leukemia
COLO 205 colon = test system: COLO 205 colon
DU-145 prostate = test system: DU-145 prostate
EKVX NSCLC = test system: EKVX NSCLC
HCC-2998 colon = test system: HCC-2998 colon
HCT-116 colon = test system: HCT-116 colon
HCT-15 colon = test system: HCT-15 colon
HOP-62 NSCLC = test system: HOP-62 NSCLC
HOP-92 NSCLC = test system: HOP-92 NSCLC
HS 578T breast = test system: HS 578T breast
HT29 colon = test system: HT29 colon
IGROV1 ovarian = test system: IGROV1 ovarian
K-562 leukemia = test system: K-562 leukemia
KM12 colon = test system: KM12 colon
LOX IMVI melanoma = test system: LOX IMVI melanoma
M14 melanoma = test system: M14 melanoma
MALME-3M melanoma = test system: MALME-3M melanoma
MCF7 breast = test system: MCF7 breast
MDA-MB-231 breast = test system: MDA-MB-231 breast
MDA-MB-435 = test system: MDA-MB-435
MDA-N = test system: MDA-N
MOLT-4 leukemia = test system: MOLT-4 leukemia
NCI-H226 lung = test system: NCI-H226 lung
NCI-H23 lung = test system: NCI-H23 lung
NCI-H460 lung = test system: NCI-H460 lung
NCI-H522 lung = test system: NCI-H522 lung
NCI/ADR-RES ovarian = test system: NCI/ADR-RES ovarian
OVCAR-3 ovarian = test system: OVCAR-3 ovarian
OVCAR-4 ovarian = test system: OVCAR-4 ovarian
OVCAR-5 ovarian = test system: OVCAR-5 ovarian
OVCAR-8 ovarian = test system: OVCAR-8 ovarian
PC-3 prostate = test system: PC-3 prostate
RPMI-8226 leukemia = test system: RPMI-8226 leukemia
RXF 393 renal = test system: RXF 393 renal
SF-268 CNS = test system: SF-268 CNS
SF-295 CNS = test system: SF-295 CNS
SF-539 CNS = test system: SF-539 CNS
SK-MEL-2 melanoma = test system: SK-MEL-2 melanoma
SK-MEL-28 melanoma = test system: SK-MEL-28 melanoma
SK-MEL-5 melanoma = test system: SK-MEL-5 melanoma
SK-OV-3 ovarian = test system: SK-OV-3 ovarian
SN12C renal = test system: SN12C renal
SNB-19 CNS = test system: SNB-19 CNS
SNB-75 CNS = test system: SNB-75 CNS
SR leukemia = test system: SR leukemia
SW-620 colon = test system: SW-620 colon
T-47D breast = test system: T-47D breast
TK-10 renal = test system: TK-10 renal
U251 CNS = test system: U251 CNS
UACC-257 melanoma = test system: UACC-257 melanoma
UACC-62 melanoma = test system: UACC-62 melanoma
UO-31 renal = test system: UO-31 renal

Measured: TGI

COc1cc2c(cc1OCc1ccccc1)NC(=O)[C@@H]1CCCN1C2=O
> 100 µM: all assays above
